In patent US6369101B1, “Therapeutic method to treat herpes virus infection” (Regents of the University of Minnesota, priority 1999, dated 2002):
Converted amounts (≈) assume the structure as drawn. Structures can show the parent of a compound that is named as a salt. Where two headings read alike, the source gives them in different places.

Tests used:
HSV-2 strain MS = assay: CPE inhibition assay, HSV-2 MS in human foreskin fibroblast cells; for Qualitative CPE at 2.0 ml dose HSV-2 MS: key: +++ = Complete cytopathic effect; ++ = Moderate cytopathic effect; + = Minimum cytopathic effect; − = No cytopathic effect; assay type: cell-based, herpes simplex virus type 2; settings: for EC50: Human alphaherpesvirus 2, HFF, read-out: EC50 HSV-2 MS; for Qualitative CPE at 2.0 ml dose HSV-2 MS: HFF cells, solution conc. per compound (ng/ml) (Acyclovir 250)
Procedure: (§1) Stock solutions of the compounds used for the testing of antiviral activity against HSV-1 and HSV-2 were prepared in distilled water, filtered through 0.2 μm filter (Acrodisco®, Gelman Sciences, USA) and stored at room temperature until used.
(§2) Human laryngeal epithelial carcinoma cells (HEp-2, ATCC, Rockville, Md.) were used for testing of antiviral compounds by cytopathic effect (CPE) inhibition and plaque reduction assay. Primary human foreskin fibroblast cells (HFF) obtained from Dr. E. R. Kern (Department of Pediatrics, University of Alabama Medical School, 309 Bevill Biomedical Research Building, 845 19th Street South, Birmingham, Ala., 35294-2170), were used for cytopathic effect (CPE) inhibition assay. HEp-2, African green monkey kidney cells (Vero, ATCC), HFF and primary rabbit kidney cells were used to determine the cytotoxic effect of compounds of formula I. These cells were propagated in Dulbeco's modified Eagle's medium (DMEM) (Sigma, USA) supplemented with 10% inactivated fetal calf serum (FCS), 25 mM HEPES, 0.2% sodium bicarbonate and 1% penicillin/-streptomycin at 37° C. in the presence of 5% CO2.
(§3) The antiviral activity of the test compounds was determined against HSV-1 strain F, HSV-2 strain G (ATCC), HSV-1 strain E-377 and HSV-2 strain MS (Dr. E. R. Kern, see above), CMV strain AD 169 (NIH), HCMV (NIH), MCMV (NIH), and VZV strain Ellen (NIH). Highly infective virus stocks of HSV-1 and HSV-2 were prepared by infecting a confluent monolayer of HEp-2 (ATCC) or HFF in 150 cm^2 plastic tissue culture flasks (Falcon, USA) at a multiplicity of infection of 0.5 in DMEM supplemented with 10% inactivated fetal calf serum and 1% penicillin/streptomycin at 37° C. in the presence of 5% CO2. The infected cells were disrupted through three freeze/thaw cycles, and viruses were clarified from large cell debris by low speed centrifugation at 3000 rpm for 10 minutes. The virus suspension was separated, aliquoted and stored at −80° C. until assayed or used for animal infection. The stock HSV-1 (E377) and HSV-2 (MS strain) contained 3.5×10^8 and 1.1×10^7 pfu/ml respectively.
(§4) Low passage HFF cells were seeded into 96-well tissue culture plates 24 hours prior to use at a cell concentration of 2.5×10^4 cells per ml in 0.2 ml of DMEM supplemented with 10% fetal calf serum. After 24 hours of incubation at 37° C. in the presence of 5% CO2, medium was removed and the test compounds were diluted two-fold in DMEM in the 96-well tissue culture plate containing monolayer. […] For both HSV-1 and HSV-2 assays, the virus concentration utilized was 1000 pfu/ml and for HCMV, MCMV, and VZV assay 2500 pfu/ml were used. The plates were then incubated at 37° C. in the presence of 5% CO2 for two to three days for HSV-1 and HSV-2, 10 days for VZV and 14 days for HCMV and MCMV. The virus induced cytopathic effect (CPE) was monitored microscopically every day. CPE of HSV-1 was recognized by cell rounding and clumping, while HSV-2 formed large syncytia along with rounding and clumping of cells. […] EC50s were estimated from graphical plots of percent CPE against the concentration of the test compounds. The EC50s for each compound are the mean of EC50s for three or more independent experiments. After three days of incubation period, media was aspirated and the cells stained with a 0.1% crystal violet solution for 30 minutes. The stain was then removed and the plates were rinsed with tap water, air dried and retained.

HSV-1 strain E-377 = assay: CPE inhibition assay, HSV-1 E377 in human foreskin fibroblast cells; for Qualitative CPE at 2.0 ml dose HSV-1 E377: key: +++ = Complete cytopathic effect; ++ = Moderate cytopathic effect; + = Minimum cytopathic effect; − = No cytopathic effect; assay type: cell-based, herpes simplex virus type 1; settings: for EC50: Human alphaherpesvirus 1, HFF, read-out: EC50 HSV-1 E377; for Qualitative CPE at 2.0 ml dose HSV-1 E377: solution conc. per compound (ng/ml) (Acyclovir 250)
Procedure: as §1, §2, §3, §4

[1] = tested on: Primary human foreskin fibroblast cells (HFF); assay: Cell proliferation assay (cytotoxicity) in HFF cells; assay type: cell-based; settings: for CC50: Human foreskin fibroblast cells, reduces growth of uninfected cells by 50%; for Qualitative Cytotoxic Effect at 2.0 ml dose: HFF cells, solution conc. per compound (ng/ml) (Acyclovir 250)
Procedure: as §2, with “Primary human foreskin fibroblast cells (HFF) obtained from Dr. E. R. Kern (Department of Pediatrics, University of Alabama Medical School, 309 Bevill Biomedical Research Building, 845 19th Street South, Birmingham, Ala., 35294-2170), were used for cytopathic effect (CPE) inhibition assay.” left out
(§5) HFF, Vero and HEp-2 cells were seeded in 24-well tissue culture plates at a concentration of […] in DMEM containing 10% FCS and incubated for 24 hours at 37° C. in the presence of 5% CO2. To the monolayer of these cells 0.5, 1.0, 1.5 and 2.0 ml of solution of antiviral compounds were added in the respective wells in duplicate and the cells were then incubated in a 5% CO2 incubator at 37° C. for 72 hours. The cells were observed daily for any change in morphology. […] At the end of this time, the media-drug solution was removed and the cells washed. One ml of 0.25% trypsin was added to each well and incubated until the cells start to come off of the plate. The cells-media mixture was then pipetted up and down several times to resuspend the cells and 0.2 ml of the cell suspension was added to 9.8 ml of trypan blue and cells were counted using hemocytometer. Each sample was counted three times with three replicate wells per sample.

[2] = tested on: Human laryngeal epithelial carcinoma cells (HEp-2); assay: Cytotoxicity in HEp-2 cells; assay type: cell-based; settings: HEp-2 cells; conc. per compound (ng/ml)
Procedure: as §2, with “Primary human foreskin fibroblast cells (HFF) obtained from Dr. E. R. Kern (Department of Pediatrics, University of Alabama Medical School, 309 Bevill Biomedical Research Building, 845 19th Street South, Birmingham, Ala., 35294-2170), were used for cytopathic effect (CPE) inhibition assay.” left out
as §5

HSV-1 strain F = assay: CPE inhibition, HSV-1 strain F in HEp-2 cells; note: key: +++ = Complete cytopathic effect; ++ = Moderate cytopathic effect; + = Minimum cytopathic effect; − = No cytopathic effect; assay type: cell-based, herpes simplex virus type 1; settings: conc. per compound (ng/ml)
Excerpt: as §2, §3, §4

HSV-2 strain G = assay: CPE inhibition, HSV-2 strain G in HEp-2 cells; note: key: +++ = Complete cytopathic effect; ++ = Moderate cytopathic effect; + = Minimum cytopathic effect; − = No cytopathic effect; assay type: cell-based, herpes simplex virus type 2; settings: conc. per compound (ng/ml)
Excerpt: as §2, §3, §4

[3] = Cell proliferation assay (cytotoxicity) in HFF cells; assay type: cell-based, human; settings: Human foreskin fibroblast cells, reduces growth of uninfected cells by 50%
Procedure: as §2, with “Primary human foreskin fibroblast cells (HFF) obtained from Dr. E. R. Kern (Department of Pediatrics, University of Alabama Medical School, 309 Bevill Biomedical Research Building, 845 19th Street South, Birmingham, Ala., 35294-2170), were used for cytopathic effect (CPE) inhibition assay.” left out
as §5

Varicella-Zoster Virus = assay: CPE inhibition in stationary cells (visual), VZV in HFF cells; assay type: cell-based; settings: test compounds in DMSO
Human Cytomegalovirus = assay: CPE inhibition in stationary cells (visual), HCMV in HFF cells; assay type: cell-based; settings: test compounds in DMSO
Epstein-Barr Virus = assay: VCA expression in EBV-infected Daudi cells; settings: Epstein-Barr Virus, Daudi cells, VCA; test compounds in DMSO
Excerpt: Raji is a Burkitt's lymphoma cell line containing 60 EBV genome/cell, and was the primary cell used for screening antiviral activity against EBV early antigen (EA) expression. […] It spontaneously expresses EBV EA in 0.25-0.5% of the cells. It was used in follow-up studies to confirm activity. These cell lines respond to superinfection by EBV by expressing EA-diffuse component EA (D), EA restricted component EA (R), and viral capsid antigen (VCA). […] The cultures were fed twice weekly and the cell concentration was adjusted to 3×10^5/ml. The cells were kept at 37° C. in humidified atmosphere with 5% CO2.
Cells were infected with the P3HR-1 strain of HBV and the test compound was added after adsorption (45 minutes at 37° C.) and washing of the cell cultures. The cultures were incubated for two days in complete medium to allow viral gene expression. Following the 48 hours of incubation, the numbers of cells of each sample was counted and smears were made. Monoclonal antibodies to the different EA components and VCA were then added to the cells and then incubated and washed. This is followed by a fluorescein conjugated rabbit anti-mouse IgG antibody, and the number of fluorescence cells in the smear were counted. The total number of cells in the cultures positive for EA or VCA were then calculated and compared.

Row | Compound | melting point | EC50 HSV-2 MS (HSV-2 strain MS; CPE inhibition in HFF cells) | EC50 HSV-1 E377 (HSV-1 strain E-377; CPE inhibition in HFF cells) | CC50 [1] | Cell Cytotoxicity [2] | Cytopathic Effect (CPE) Inhibition HSV-1 Strain F (HSV-1 strain F) | Cytopathic Effect (CPE) Inhibition HSV-2 Strain G (HSV-2 strain G) | other results
1 | CC1(C)CCC23CC[C@]4(C)C(CCC5[C@@]6(C)C=C(O)C(=O)C(C)(C)C6CC[C@]54C)C2C1OC3=O (stereo partly shown) [Example 13, Allobetulonlacton 1-ene-2-ol] | 238.8 to 243.6 °C (dec.) |  |  |  |  |  |  | 
2 | CC1(C)CCC23CCC4(C)C(CCC5C6(C)CCC(OC(=O)c7ccccc7C(=O)O)C(C)(C)C6CCC54C)C2C1OC3 (stereo not shown) [Allobetulin 3-phthalate, Allobetulin, 3-Phthalate] |  | 0.25 µg/mL (≈ 0.423 µM) | >0.25 µg/mL | >0.25 µg/mL | − | ++ | ++ | 
3 | CC1(C)CCC23CC[C@]4(C)C(CCC5[C@@]6(C)CCC(O)C(C)(C)C6CC[C@]54C)C2C1OC3=O (stereo partly shown) [Allobetulin lactone, Allobetulin-Lactone] |  |  |  |  | − | +++ | ++ | EC50 (HSV-2 strain MS): 0.2 µg/mL (≈ 0.438 µM); EC50 (HSV-1 strain E-377): > 0.125 µg/mL; CC50 at 72 h [3]: > 0.125 µg/mL
4 | CC1(C)CCC23CC[C@]4(C)C(CCC5[C@@]6(C)C=C(O)C(=O)C(C)(C)C6CC[C@]54C)C2C1OC3 (stereo partly shown) [Allobetulon-1,2-ene-2-ol, Allobetulon 1,2-ene-2-ol.] | 236.8 to 238.8 °C |  |  |  | − | ++ | ++ | Qualitative CPE at 2.0 ml dose HSV-2 MS (HSV-2 strain MS): +++; EC50 (HSV-2 strain MS; CPE inhibition in HFF cells): 0.165 µg/mL (≈ 0.363 µM); Qualitative CPE at 2.0 ml dose HSV-1 E377 (HSV-1 strain E-377; HFF cells): +++; EC50 (HSV-1 strain E-377; CPE inhibition in HFF cells): 0.22 µg/mL (≈ 0.484 µM); Qualitative Cytotoxic Effect at 2.0 ml dose [1]: −; CC50 at 72 h ([3]; primary human foreskin fibroblast (HFF) cells): 0.22 µg/mL (≈ 0.484 µM)
5 | CC(=O)OC1CCC2(C)C(CCC3(C)C2CCC2C4C5OC(=O)C4(CCC5(C)C)CCC23C)C1(C)C (stereo not drawn) [3β-Acetoxy-19αH-19,28lactone-oleanan, Allobetulin-3-acetyl lactone (3β-Acetoxy-19αH-19,28-lactone-oleanane)] |  | 0.125 µg/mL (≈ 0.251 µM) | 0.225 µg/mL (≈ 0.451 µM) | 0.225 µg/mL (≈ 0.451 µM) | − | ++ | ++ | Qualitative CPE at 2.0 ml dose HSV-2 MS (HSV-2 strain MS): ++; Qualitative CPE at 2.0 ml dose HSV-1 E377 (HSV-1 strain E-377; HFF cells): +++; Qualitative Cytotoxic Effect at 2.0 ml dose [1]: +
6 | CC1(C)CCC23CC[C@@]4(C)C(CCC5[C@@]6(C)CCC(OP(=O)(O)O)C(C)(C)C6CC[C@]54C)C2C1OC3 (stereo partly shown) [Allobetulin 3-phosphate, Allobetulin Phosphate] |  | 0.25 µg/mL | >0.25 µg/mL | >0.125 µg/mL | − | +++ | ++ | anti HSV-1 activity (in words) (HSV-1 strain E-377; HFF cells, HSV-1 (E377)): significant activity
7 | Cc1ccc(S(=O)(=O)OC2CC[C@@]3(C)C(CC[C@]4(C)C3CCC3C5C6OCC5(CCC6(C)C)CC[C@]34C)C2(C)C)cc1 (stereo partly shown) (as salt: tosylate) [Example 9, Allobetulin Tosylate] | 180 to 182.6 °C (dec.) |  |  |  |  |  |  | 
8 | Betulin glycerol oxalate |  |  |  |  |  |  |  | EC50 (Varicella-Zoster Virus): >0.02 µg/mL; EC50 (Human Cytomegalovirus): >0.1 µg/mL; EC50 (Epstein-Barr Virus): 0.0072 µg/mL
